Measured values as given in patent US20230020507A1, “COMPOUND AND USE THEREOF IN TREATING AUTOIMMUNE DISEASES” (PARENCHYMA BIOTECH INC., priority 2019, published 2023).

Assays:
[1] = system: Foxp3+ regulatory T cells; test: In vitro regulatory T cell (Foxp3+ Treg) production from human peripheral blood CD4 T cells; assay type: cell-based; settings: anti-CD3/anti-CD28, TGFβ-1, IL-2, 2.5 μM, 7 days
Protocol: Human peripheral blood (AllCells) and phosphate buffered saline (PBS) were mixed in a ratio of 1:1 to prepare a mixture, followed by allowing the mixture to slowly rise so as not to be mixed into the upper layer of Histopaque (Sigma). After centrifugation at 350 g for 20 minutes, only the monocyte layer in the middle layer was collected and washed with HBSS (Hanks' Balanced Salt Solution, Gibco®). After washing with MACS buffer (Miltenyi Biotec) once more to obtain T-cells, positive selection (autoMACS seperator, Miltenyi Biotec) was performed with CD4 Microbeads (Miltenyi Biotec). The T-cells collected by the above method were prepared by resuspending the cells in RPMI-fetal bovine serum (FBS) 10%+2-ME (mercaptoethanol) medium at 5×10^5/ml. For T-cell activation, 10 μg/ml anti-CD3 (eBioscience™) was dispensed by 150 μl into a 48-well plate, reacted in a cell incubator (37° C., 5% CO2 incubator) for 3 hours, and washed with phosphate buffered saline to prepare the plate. 250 μl of resuspended T-cells was dispensed onto the prepared plate, and each well was treated with 2 μg/ml of anti-CD28 (eBioscience™), 5 ng/ml of TGFβ-1 (R&D systems), and 50 U/ml of IL-2 (Miltenyi Biotec). Each 5 μl of compounds at a concentration of 2.5 μM diluted in RPMI+2ME medium was used for treatment, followed by culturing the same in a cell incubator (37° C., 5% CO2 incubator) for 7 days. As a control, 5 μl of 0.05% dimethylsulfoxide (DMSO)/RPMI medium was used for treatment. After 7 days, in order to confirm effects of producing regulatory T cells, the cultured cells were recovered to determine the presence of Foxp3 protein.
The recovered cells were placed in a 5 ml FACS tube (BD Falcon) and washed with 1 ml of phosphate buffered saline. The cells were resuspended in 0.1 ml of FACS buffer (0.1% NaN3, 1% FBS) and treated with 1 μg of human immunoglobulin G (Human IgG, Sigma) to prevent non-specific binding of the antibody. After reacting at 4° C. for 15 minutes, the cells were washed with FACS buffer. Then, 1 ml of Fixation/Permeabilization solution (eBioscience™) was added to the FACS tube containing each sample, followed by reaction at 4° C. for 1 hour. Thereafter, the product was washed twice with a Permeabilization buffer (eBioscience™). Then, 0.25 μg of Foxp3 monoclonal antibody (eBioscience™) was used for treatment, followed by staining the sample for 4 to 30 minutes. The cells were washed twice with the permeabilization buffer, suspended in 0.3 ml of FACS buffer, and measured by flow cytometry.

[2] = system: IFN-γ, IL-17A, IL-1β, IL-10 and Foxp3 expression in spinal cord lesions; test: mRNA expression of inflammatory and immunomodulatory factors in spinal cord of EAE mice (real-time PCR); assay type: in vivo, mouse; settings: 20 mg/kg i.p., 42nd day, compared to solvent control
Description: On the 42nd day of the experiment, the spinal cord of the mouse was excised to prepare an mRNA sample. In order to extract mRNA, the spinal cord tissue was ground with a homogenizer to obtain a homogeneous suspension. […] Then, cDNA was synthesized from the isolated RNA by reverse transcription, and the expression of inflammatory cytokines was investigated through real-time polymerase chain reaction (PCR) using iQ SYBR-Green Supermix (Bio-rad) in the CFX96 (Bio-rad) detection system. Relative values of the enzyme expression levels were compared by the ΔΔct method using GAPDH as a control enzyme. Herein, one (1) fold was set using the WT mouse spinal cord as a control.
The real-time polymerase chain reaction was implemented under the conditions of cycles at an annealing temperature of 58° C., and the following primer sequences were used.

[3] = system: IL-1β, IL-6, IL-17A, TNF-α, IL-10 and Foxp3 expression in colon lesions; test: mRNA expression of inflammatory and immunomodulatory factors in colon of DSS mice (real-time PCR); assay type: in vivo, mouse; settings: 20 mg/kg oral, 15th day, compared to solvent control
Description: On the 15th day of the experiment, the colon of the mouse was excised to prepare an mRNA sample. In order to extract mRNA, the colon tissue was ground with a homogenizer to acquire a homogeneous suspension. […] From the isolated RNA, cDNA was synthesized by reverse transcription followed by confirming the expression of inflammatory cytokines through real-time polymerase chain reaction (PCR) using iQ SYBR-Green Supermix (Bio-rad) in the CFX96 (Bio-rad) detection system. Relative values of the enzyme expression levels were compared by the ΔΔct method using GAPDH as a control enzyme. Herein, one (1) fold was set using the normal mouse colon as a control.
The real-time polymerase chain reaction was implemented under the conditions of cycles at an annealing temperature of 58′° C. and the following primer sequences were used.

[4] = system: C57BL/6 mice with autoimmune encephalomyelitis (EAE); test: Experimental autoimmune encephalomyelitis (EAE) model of multiple sclerosis, severity index; assay type: in vivo, mouse; settings: 20 mg/kg intraperitoneally daily 12th to 17th day
Protocol: On day 0, myelin oligodendrocyte glycoproteins 35-55 (MOG 35-55, Peptron) (200 μg), heat-killed Mycobacterium tuberculosis (Difco, Cat No. 231141) (500 μg), and adjuvant (Complete Freund's adjuvant, Sigma Aldrich, Cat No. F5506) were mixed together and then submerged for 7 minutes. After subcutaneous injection of 100 μl of the submerged peptide into both flanks of each of C57BL/6 mice (7 weeks old, female, 17±2 g), 100 μl of pertussis toxin (Sigma Aldrich. Cat No. P2980) (200 ng) was administered intravenously to the tail.
On the 2nd day of the experiment, the same amount of pertussis toxin was administered intravenously. The mice were checked for immersion leaking from the injected site, and visually observed from the 7th day of the experiment in order to confirm the onset of multiple sclerosis.
The multiple sclerosis index was visually observed and recorded at an interval of 2 days from the 7th day of the experiment in the severity index system classified into 0-5 stages, and autoimmune encephalomyelitis symptoms were indexed according to the following items (see Table 4).

[5] = system: C57BL/6 mice with DSS-induced inflammatory bowel disease; test: DSS-induced inflammatory bowel disease model, severity index and colon weight:length ratio; assay type: in vivo, mouse; settings: 20 mg/kg oral daily, compared to solvent control; for inflammatory bowel disease severity index: 2nd to 11th day, 10th day of the experiment; for colon weight:length ratio (intestinal inflammation): 15th day of the experiment
Protocol: The 1.5% DSS solution was changed at an interval of 2 days. Sterile distilled water was provided for drinking from the 8th day of the experiment. Body weight and severity index were measured at an interval of 2 days from the 0th day of the experiment in order to confirm the onset of inflammatory bowel disease.
20 mg/kg of the compound per mouse was completely dissolved in DMSO corresponding to 10% (v/v) of the administered dose, and then diluted in a cremophor EL-phosphate buffered saline mixture in order to produce the final DMSO:Cremophor EL:phosphate buffered saline (1:1:8, v/v/v), followed by oral administration of 200 μl daily for a total of 10 times from the 2nd to 11th days of the experiment. An inflammatory bowel disease severity index was visually observed and recorded at an interval of 2 days according to a severity index system classified into 0 to 10 levels.
Inflammatory bowel disease symptoms were evaluated by summing the scores of three items according to the following items (Table 3).

[6] = scale 0-5, solvent control 3.33±0.17

Row | SMILES | generation of Foxp3+ regulatory T cells [1] | inflammatory bowel disease severity index [5] | colon weight:length ratio (intestinal inflammation) [5] | further results
1 | O=C(Cc1c[nH]c2ccccc12)Nc1cc(Cl)cc(Cl)c1 [Compound 81, N-(3,5-dichlorophenyl)-2-(1H-indol-3-yl)acetamide] | promoted | – | – | –
2 | Cc1nc(NC(=O)Cc2c[nH]c3ccc(Cl)cc23)ccc1Br [Compound 8, N-(5-bromo-6-methylpyridin-2-yl)-2-(5-chloro-1H-indol-3-yl)acetamide] | promoted | statistically significant therapeutic effects | significantly suppressed | expression level of Foxp3 in spinal cord lesions [2]: significantly increased; expression level of IFN-γ in the spinal cord lesion [2]: significantly reduced; expression level of IL-1β in the spinal cord lesion [2]: significantly reduced; expression level of IL-10 in spinal cord lesions [2]: significantly increased; expression level of IL-17A in the spinal cord lesion [2]: significantly reduced; expression level of Foxp3 in the colon lesion [3]: significantly increased; expression level of IL-1β in colon lesions [3]: significantly reduced; expression level of IL-6 in colon lesions [3]: significantly reduced; expression level of IL-10 in the colon lesion [3]: significantly increased; expression level of IL-17A in colon lesions [3]: significantly reduced; expression level of TNF-α in colon lesions [3]: significantly reduced; treatment effects on EAE severity index compared to solvent control from the 16th day, maintained after administration was stopped [4]: statistically significant treatment effects; severity index (EAE), 18th day, acute reaction period [4, 6]: 1.17±0.56; severity index (EAE), 36th day, chronic reaction period [4, 6]: 1.17±0.56
3 | Cc1nc(NC(=O)Cc2c[nH]c3ccc(F)cc23)ccc1Br [Compound 2, N-(5-bromo-6-methylpyridin-2-yl)-2-(5-fluoro-1H-indol-3-yl)acetamide] | promoted | – | – | –
4 | O=C(Cc1c[nH]c2ccccc12)Nc1ccc(Cl)c(F)n1 [Compound 23, N-(5-chloro-6-fluoropyridin-2-yl)-2-(1H-indol-3-yl)acetamide] | promoted | – | – | –
5 | CN(C(=O)Cc1c[nH]c2ccc(Cl)cc12)c1nc2ccccc2s1 [Compound 47] | promoted | – | – | –
6 | CN(C(=O)Cc1c[nH]c2ccccc12)c1nc2ccccc2s1 [Compound 44, N-(benzo[di]thiazol-2-yl)-2-(1H-indol-3-yl)-N-methyl acetamide] | promoted | statistically significant therapeutic effects | significantly suppressed | –
7 | Cc1nc(NC(=O)Cc2c[nH]c3ccccc23)ccc1Br [Compound 5, N-(5-bromo-6-methylpyridin-2-yl)-2-(1H-indol-3-yl)acetamide] | promoted | – | – | –
8 | CN(C(=O)Cc1c[nH]c2ccc(F)cc12)c1nc2ccccc2s1 [Compound 60, N-(benzo[di]thiazol-2-yl)-2-(5-fluoro-1H-indol-3-yl)-N-methyl acetamide] | – | statistically significant therapeutic effects | significantly suppressed | –
9 | COc1cc(NC(=O)Cc2c[nH]c3ccccc23)cc(OC)c1OC [Compound 71, 2-(1H-indol-3-yl)-N-(3,4,5-trimethoxyphenyl)acetamide] | promoted | – | – | –
